Measured values from US12459938B2, “ORAI channel inhibitors” (Beth Israel Deaconess Medical Center, Inc., priority 2019, dated 2025).

Legend:
Assay type in all cases: cell-based
[1] = test system: Rat mast cells (RBL-2H3 cells); test: Calcium influx assay (Fluo-4NW, thapsigargin store depletion, Ca2+ re-addition); conditions: control = DMSO, read-out: Fluo-4NW fluorescence (Ca2+ influx), % of control; for activity at 1 µM: 1 μM compound; for activity at 10 µM: 10 μM compound
Protocol: Rat mast cells (RBL-2H3 cells) (ATCC) were seeded in 96-well plate at 4×10^4 cells per well in DMEM-supplemented with 2% FBS and allowed to adhere overnight. Culture medium was then replaced with 50 μl of Ca^2+-free Tyrode buffer to load Ca^2+-probe Fluo-4NW (Molecular Probe, Thermo Fisher, MA, USA) per manufacturer instruction. A testing compound at indicated concentrations was supplied during the probe loading from the beginning. Cells were incubated in the presence or absence of a testing compound for 60 minutes in the Ca^2+-free medium at 37° C. During the last 5 minutes of incubation, cells were treated with 1 μM thapsigargin (Tg, Sigma Aldrich) to deplete [Ca^2+]ER, 20 mM CaCl2 in normal saline solution was supplemented back to the [Ca^2+]ER-depleted cells to have 2 mM as final concentration. Culture medium was removed 1 minute after Ca^2+ reloading, and changes in Fluo-4NW fluorescence (RFU) were recorded with the multi-mode plate reader (FilterMax F5, Molecular Devices/Thermo Fisher Scientific, MA, USA) at an excitation wavelength of 485 nm and an emission wavelength of 535 nm. The inhibitory activity of the tested compound was presented as % of control (DMSO).

NFAT = NFAT activation assay (luciferase reporter, PMA and ionomycin); conditions: Homo sapiens; 10 μM compound; Jurkat cells; 15 nM PMA and 0.5 μM ionomycin; 18 hours; read-out: Activity 10 μM (% inhibition of NFAT luciferase luminescence)
Protocol: Jurkat cells (BPS Bioscience catalog No. 60621) were seeded at 40,000 cells per well into white clear-bottom 96-well microplate in 80 μl of growth medium without Geneticin. 10 μl of testing compounds (final 10 μM) were added to each well and preincubated with cells for half an hour. Then 10 μl of PMA and ionomycin mixture were added to each well to make the final concentration of 15 nM PMA and 0.5 μM ionomycin. Cells were incubated at 37° C. and 5% CO2 incubator for 18 hours. After treatment, cells were lysed and the luciferase assay was performed using ONE-Step luciferase assay system by adding 100 μl of One-Step Luciferase reagent (BPS Bioscience catalog No. 60690) per well followed by rocking at room temperature for about 30 minutes. Luminescence was measured using a luminometer (BioTek Synergym™ 2 microplate reader). The percent luminescence in the presence of each compound was calculated according to the following equation: % Luminescence=(L−Lb)/(Lt−Lb), where L=the luminescence intensity in the presence of the compound, Lb=the luminescence intensity in the absence of cells, and Lt=the luminescence intensity in the absence of the compound. The percent inhibition was calculated by: % inhibition=100−(% Luminescence).

TNF-α = TNF-α release from rat mast cells (ELISA); conditions: Mast cell, RBL rat mast cells, control = DMSO; for activity at 1 µM: 1 μM compound; for activity at 10 µM: 10 μM compound
Protocol: (§1) [Ca^2+]ER in RBL (ATCC) rat mast cells were depleted by Tg in the presence of a test compound. Then […] DMEM-2% FBS (containing 5 mM Ca^2+) was supplemented back in the presence of the corresponding concentration of MCS-01.
(§2) Thirty minutes after replenishing Ca^2+ the culture supernatant was collected for MC degranulation and cytokine release. Degranulation was measured as percent secreted β-hexosaminidase (β-Hex) according to the protocol of the assay kit (Sigma-Aldrich, MO, USA). At this time point TNF-α was also measured using ELISA kit (R&D Systems, MN, USA).
The inhibitory activity of the tested compound in the TNF-α assay was presented as % of control (DMSO).

IL-2 = test: Interleukine-2 (IL-2) assay (ELISA, PMA and TG stimulated); conditions: Human Jurkat T cells; PMA (10 nM) and TG (100 nM); 8 hours; read-out: IC50 (IL-2 levels)
Protocol: Human Jurkat T cells (ATCC) were plated in Dubelcco's Modified Eagle Medium (DMEM) with 1% FBS in a 96 well plate at a density of 1×10^6 cells/well. Cells were treated with a testing compound at different concentrations and stimulated by PMA (10 nM) and TG (100 nM). The treated cells were incubated at 8 hours. The supernatants were collected and assayed for IL-2 levels by ELISA according to the manufacturer's protocols. The IC50 of Example 2 was determined to be 3 μM.

RBL rat mast cells = test: Degranulation of rat mast cells (secreted β-hexosaminidase); conditions: Mast cell, 0.5 h, Tg depletion, 30 minutes after replenishing Ca2+
Protocol: as §1, §2

SMILES | activity at 1 µM [1] | activity at 10 µM [1] | inhibition at 10 µM (NFAT) | activity at 1 µM (TNF-α) | activity at 10 µM (TNF-α) | IC50 (IL-2) | IC50 (RBL rat mast cells)
O=C(Nc1ccncc1F)c1cn(CC2CCC2)c2ccccc12 [Example 8, 1-(cyclobutylmethyl)-N-(3-fluoropyridin-4-yl)-1H-indole-3-carboxamide] | 50% | 25% | > 75% | 79% | 51% | – | –
O=C(Nc1ccncc1F)c1cn(CC2CC2)c2ccccc12 [Example 13, 1-(cyclopropylmethyl)-N-(3-fluoropyridin-4-yl)-11/-indole-3-carboxamide] | 63% | 31% | > 75% | 67% | 53% | – | –
O=C(Nc1c(F)cccc1Cl)c1cn(CC2CC2)c2ccccc12 [Example 2, N-(2-chloro-6-fluorophenyl)-1-(cyclopropylmethyl)-1H-indole-3-carboxamide] | 46% | 14% | – | 57% | 30% | 3000 nM | 1200 nM
Cc1cnccc1NC(=O)c1cn(CC2CCC2)c2ccccc12 [Example 9, 1-(cyclobutylmethyl)-N-(3-methylpyridin-4-yl)-1H-indole-3-carboxamide] | 81% | 65% | > 75% | – | – | – | –
Cc1cnccc1NC(=O)c1cn(CC2CC2)c2ccccc12 [Example 4, 1-(cyclopropylmethyl)-N-(3-methylpyridin-4-yl)-1H-indole-3-carboxamide] | 61% | 44% | 51 to 75% | – | – | – | –
